Experimental data published in patent publication US8329645B2, “Polymyxin derivatives and uses thereof” (priority 2008, dated 2012).

How the values were obtained:
E. coli IH3080 [1] = assay: Sensitization to rifampin: growth inhibition around wells on LB plates containing rifampin; format: cell-based, Escherichia coli
Method: (§1) From an overnight-grown culture of IH3080 on LB agar, a suspension of approx. 10^8 cells/ml was prepared in 0.9% NaCl. Aliquots of this suspension were then pipetted on the agar plates and the plates were gently shaken to spread the suspension evenly on the entire surface of the plate. Thereafter, the unabsorbed part of the suspension was removed by using a Pasteur pipette. After the surface had dried, small wells (diameter, 2 mm) were drilled on the plates (five wells per plate) by using a sterile sharp-edged narrow metal tube, single-use pipette tip, and vacuum suction. An alternative method used a swab to spread the inoculum. Samples (4 μl and 10 μl) of the peptide solution in 0.9% NaCl (at concentrations of 1 μg/ml and 0.1 μg/ml) were then pipetted to the wells and the sample fluids were allowed to absorb. Controls included 0.9% NaCl solution without the compound to be tested. The plates were then incubated for 18 h at 37° C. whereafter the diameters of growth inhibition zones around each well were measured; the diameter of the well itself was not reduced. Finally, the diameters were converted to surface areas of growth inhibition (in square mm).

A. baumannii ATCC 19606 = assay: as above; format: cell-based, Acinetobacter baumannii; settings: 4 μg
[2] = tested on: Pseudomonas aeruginosa ATCC 27853; assay: Growth inhibition around wells on LB agar plates; format: cell-based; settings: Ps. aeruginosa ATCC 27853
Method: as §1
(§2) Direct antibacterial activity of sixteen NAB compounds against Acinetobacter baumannii ATCC 19606 and Pseudomonas aeruginosa ATCC 27853 was tested by using the susceptibility determination method described in Example 2. Five compounds (NAB7062, NAB734, NAB737, NAB739, and NAB740) had very notable activity against A. baumannii. […] The antibacterial activity of NAB739 and NAB740 were as strong as or even stronger than that of polymyxin B.

[3] = tested on: Acinetobacter baumannii ATCC 19606; assay: Growth inhibition around wells on LB agar plates; format: cell-based; settings: A. baumannii ATCC 19606
Method: as §1, with “Samples (4 μl and 10 μl) of the peptide solution in 0.9% NaCl (at concentrations of 1 μg/ml and 0.1 μg/ml) were then pipetted to the wells and the sample fluids were allowed to absorb.” left out
as §2

[4] = tested on: Ps. aeruginosa ATCC 27853; assay: Sensitization to rifampin: growth inhibition around wells on LB plates containing rifampin; format: cell-based, Pseudomonas aeruginosa; settings: 4 μg
E. coli IH3080 [5] = assay: Growth inhibition around wells on LB agar plates; format: cell-based, Escherichia coli
Method: Peptides synthesized in Example 1, all carrying at least two (2) but not more than three (3) positive charges, were studied for their ability to inhibit the growth of E. coli. This was tested employing LB agar (LB Agar Lennox, Difco, BD, Sparks, Md., U.S.A) plates. The indicator organism E. coli IH3080 (K1:O018) was an encapsulated strain originally isolated from a neonate suffering from meningitis (Vaara et al. 1984) and obtained from National Public Health Institute, Helsinki, Finland.
as §1, with “Samples (4 μl and 10 μl) of the peptide solution in 0.9% NaCl (at concentrations of 1 μg/ml and 0.1 μg/ml) were then pipetted to the wells and the sample fluids were allowed to absorb.” left out

[6] = 4 μg of compound, rifampin 0 μg/ml
[7] = 4 μg of compound, rifampin 0.1 μg/ml
[8] = 4 μg of compound, rifampin 1.0 μg/ml

Substance | growth inhibition around a well in the presence of rifampin (E. coli IH3080 [1]; [6]) | growth inhibition around a well in the presence of rifampin (E. coli IH3080 [1]; [7]) | growth inhibition around a well in the presence of rifampin (E. coli IH3080 [1]; [8]) | growth inhibition around a well in the presence of rifampin (A. baumannii ATCC 19606; rifampin 0 μg/ml) | growth inhibition around a well in the presence of rifampin (A. baumannii ATCC 19606; rifampin 0.1 μg/ml) | growth inhibition around a well in the presence of rifampin (A. baumannii ATCC 19606; rifampin 0.3 μg/ml) | growth inhibition around a well ([2]; 4 μg) | growth inhibition around a well ([2]; 10 μg) | growth inhibition around a well ([3]; 4 μg) | growth inhibition around a well ([3]; 10 μg) | growth inhibition around a well in the presence of rifampin ([4]; rifampin 0 μg/ml) | growth inhibition around a well in the presence of rifampin ([4]; rifampin 0.1 μg/ml) | growth inhibition around a well in the presence of rifampin ([4]; rifampin 0.3 μg/ml) | growth inhibition around a well (E. coli IH3080 [5]; 4 μg of compound per well) | growth inhibition around a well (E. coli IH3080 [5]; 10 μg of compound per well) | growth inhibition around a well in the presence of rifampin (E. coli IH3080 [1]; 10 μg of compound, rifampin 1.0 μg/ml)
DA-cy[Dab-Dab-DPhe-Leu-Dab-Dab-Thr-] [NAB 736] | 0 square millimeters | 113 square millimeters | 133 square millimeters | 0 square millimeters | 95 square millimeters | 154 square millimeters | 38 square millimeters | 79 square millimeters | 0 square millimeters | 0 square millimeters | 38 square millimeters | 38 square millimeters | 38 square millimeters | 0 square millimeters | 0 square millimeters | 
DA-Thr-Abu-cy[Dab-Dab-DPhe-Leu-Dab-Dab-Thr-] [NAB 7062] | 50 square millimeters |  | 104 square millimeters | 13 square millimeters | 50 square millimeters | 95 square millimeters | 0 square millimeters | 0 square millimeters | 13 square millimeters | 38 square millimeters | 0 square millimeters | 0 square millimeters | 7 square millimeters |  | 99 square millimeters | 
OA-DAla-DAla-cy[Dab-Dab-DPhe-Leu-Dab-Dab-Thr-] [NAB 733] | 0 square millimeters | 95 square millimeters | 113 square millimeters |  |  |  |  |  |  |  |  |  |  | 0 square millimeters | 0 square millimeters | 
OA-Thr-DThr-cy[Dab-Dab-DPhe-Thr-Dab-Dab-Thr-] [NAB 737] | 133 square millimeters | 177 square millimeters | 201 square millimeters | 38 square millimeters | 201 square millimeters | 283 square millimeters | 0 square millimeters | 28 square millimeters | 38 square millimeters | 79 square millimeters | 0 square millimeters |  | 20 square millimeters |  |  | 
Deacylpolymyxin B [reference compound] | 57 square millimeters | 79 square millimeters | 127 square millimeters |  |  |  |  |  |  |  |  |  |  |  | 113 square millimeters | 
OA-Thr-Abu-cy[Dab-Lys-DPhe-Leu-Dab-Dab-Thr-] [NAB 731] | 0 square millimeters | 0 square millimeters | 5 square millimeters |  |  |  |  |  |  |  |  |  |  | 0 square millimeters | 0 square millimeters | 22 square millimeters
MHA-Thr-Abu-cy[Dab-Dab-DPhe-Leu-Dab-Dab-Thr-] [NAB 706] | 5 square millimeters | 79 square millimeters | 133 square millimeters |  |  |  |  |  |  |  |  |  |  | 5 square millimeters | 7 square millimeters | 
OA-Abu-cy[Dab-Dab-DPhe-Leu-Dab-Dab-Thr-] [NAB 713] | 0 square millimeters | 20 square millimeters | 38 square millimeters |  |  |  |  |  |  |  |  |  |  | 0 square millimeters | 0 square millimeters | 
OA-Thr-Abu-cy[Dab-Dab-DPhe-Leu-Dab-Abu-Thr-] [NAB 709] | 0 square millimeters | 0 square millimeters | 13 square millimeters |  |  |  |  |  |  |  |  |  |  | 0 square millimeters | 0 square millimeters | 
OA-Thr-Abu-cy[Dab-Abu-DPhe-Leu-Dab-Dab-Thr-] [NAB 710] | 0 square millimeters | 7 square millimeters | 13 square millimeters |  |  |  |  |  |  |  |  |  |  | 0 square millimeters | 7 square millimeters | 
Deacylcolistin [reference compound] | 79 square millimeters | 87 square millimeters | 127 square millimeters |  |  |  |  |  |  |  |  |  |  |  | 95 square millimeters | 
OA-Thr-Dab-cy[Dab-Abu-DPhe-Leu-Dab-Dab-Thr-] [NAB 715] | 0 square millimeters | 0 square millimeters | 33 square millimeters |  |  |  |  |  |  |  |  |  |  | 0 square millimeters | 0 square millimeters | 
MHA-Abu-Thr-Abu-cy[Dab-Dab-DPhe-Leu-Dab-Dab-Thr-] [NAB 707] | 5 square millimeters | 87 square millimeters | 113 square millimeters |  |  |  |  |  |  |  |  |  |  | 5 square millimeters | 7 square millimeters | 
MHA-Dab-Thr-Dab-cy[Dab-Dab-DPhe-Leu-Abu-Abu-Thr-] [NAB 721] | 0 square millimeters | 13 square millimeters | 28 square millimeters |  |  |  |  |  |  |  |  |  |  | 0 square millimeters | 0 square millimeters | 
Polymyxin B heptapeptide [reference compound] | 0 square millimeters | 0 square millimeters | 38 square millimeters |  |  |  |  |  |  |  |  |  |  | 0 square millimeters | 0 square millimeters | 
